According to US11179450B2, “Long chain antigen containing interepitope sequence that promotes antigen presentation to T cells” (MIE UNIVERSITY, priority 2013, dated 2021):

Assays:
[1] = system: CD11c+ cells (dendritic cells); assay: In vitro uptake of FAM-labeled long chain peptide antigens by antigen-presenting cells (dendritic cells); format: cell-based; details: FIG. 8, complexed with CHP, 10 μg/mL, mouse spleen cells, 60 minutes, in comparison to G6 and P6
Excerpt: Long chain peptide antigens MEN, all containing three types of mouse CD8+ T cell epitope sequences (MA p265 (Sequence No. 27), NY p81 (Sequence No. 29), and mERK2 9m (Sequence No. 28)), were synthesized. The interepitope sequences between the respective epitopes were respectively six consecutive tyrosines (Y6), six consecutive glycines (G6), or six consecutive prolines (P6) (Sequence Nos. 1-3). Each long chain peptide antigen, labeled with the fluorescent dye FAM, was complexed with CHP and administered in vitro to mouse dendritic cells and mouse macrophages. After 60 minutes, the fluorescence uptakes into the respective cells were measured by flow cytometry with the P5 fraction in the figure being deemed to correspond to the dendritic cells and the P6 fraction in the figure being deemed to correspond to the macrophages.
In vitro uptake of the long chain peptide antigens by antigen-presenting cells was measured as follows. Each long chain peptide labeled with a fluorescent dye was complexed with CHP by the method described above. Spleen cells separated from a normal mouse were added at 1×10^6 cells/0.5 mL/well to a 24-well plate. […] The uptake of the fluorescence-labeled long chain peptide antigens by CD11c^+ cells (dendritic cells) and F4/80^+ cells (macrophages) were observed using flow cytometry.

[2] = system: MA p265 specific CD8+ T cells; assay: Specific CD8+ T cell induction in mice, intracellular cytokine staining (MA p265 epitope); format: in vivo, BALB/c mice; details: FIG. 6; comparing one to six tyrosines
Procedure: Long chain peptide antigens MEN, all containing three types of mouse CD8+ T cell epitope sequences (MA p265 (Sequence No. 27), NY p81 (Sequence No. 29), and mERK2 9m (Sequence No. 28)), were synthesized. The interepitope sequences between the respective epitopes were one to six consecutive tyrosines (Sequence Nos. 1 and 9-12). Vaccines containing the respective long chain peptide antigens were administered to mice in the same manner as in FIG. 1 and the frequencies of CD8+ T cells specific to the respective epitope sequences were measured by the intracellular cytokine staining method.
Long chain peptide antigens MEN, all containing three types of mouse CD8+ T cell epitope sequences (MA p265 (Sequence No. 27), NY p81 (Sequence No. 29), and mERK2 9m (Sequence No. 28)), were synthesized. The interepitope sequences between the respective epitopes were five to ten consecutive tyrosines (Sequence Nos. 1 and 13-15). Vaccines containing the respective long chain peptide antigens were administered to mice in the same manner as in FIG. 1 and the frequencies of CD8+ T cells specific to the respective epitope sequences were measured by the intracellular cytokine staining method.
Each CHP/long chain peptide complex as the vaccine and the CpG oligo DNA as the adjuvant were administered at the same time to a mouse. Administration was performed by subcutaneous injection on the back of the mouse. […]

SNPARYEFLYYYYYYQYIHSANVLYYYYYYRGPESRLL (Long chain peptide antigen, containing three types of mouse CD8+ T cell epitope sequences (MA p265, NY p81, and mERK2 9m)) [MEN(Y6)]
fluorescence uptake into dendritic cells [1]: significantly higher
induction of specific CD8+ T cells, MA p265 (first epitope) [2]: highest
